From ChEMBL document CHEMBL3886397, “Agent for treatment of eye diseases” (2015)

Target: Transitional endoplasmic reticulum ATPase (Mus musculus, UniProt Q01853)
Assay: Inhibition Assay: Mouse VCP cDNA was added with a DNA sequence corresponding to histidine tag at the amino-terminal, subcloned into a baculovirus vector pVL1392 (BD Bioscience), and expressed in Sf-9 insect cells. The protein was purified with a nickel column (GE Healthcare). The concentration of the protein was adjusted to 0.25-0.5 ug/ml and the protein was stored in a solution containing 50 mM TrisCl pH 8.0, 5 mM EDTA, 10% glycerol, and 15 mM DTT. The ATPase activity was determined as follows. 500 ng of the purified VCP was mixed with 100 uM [gamma-32P]ATP (18.5 GBq/mmol) and the test substance in 20 uL of ATPase buffer (20 mM HEPES (pH7.4), 50 mM KCl, 5 mM MgCl2, 15 mM DTT), and incubated at 37° C. for 10 minutes.The enzyme reaction was stopped with addition of 200 uL of an ice-cold solution containing 7% TCA and 1 mM K2HPO4. 50ul of a solution containing 3.75% ammonium molybdate and 0.02M tungstate silicic/3 NH2SO4 was added, followed by 300 uL of […].

Chain of Transitional endoplasmic reticulum ATPase (Q01853 whole entry): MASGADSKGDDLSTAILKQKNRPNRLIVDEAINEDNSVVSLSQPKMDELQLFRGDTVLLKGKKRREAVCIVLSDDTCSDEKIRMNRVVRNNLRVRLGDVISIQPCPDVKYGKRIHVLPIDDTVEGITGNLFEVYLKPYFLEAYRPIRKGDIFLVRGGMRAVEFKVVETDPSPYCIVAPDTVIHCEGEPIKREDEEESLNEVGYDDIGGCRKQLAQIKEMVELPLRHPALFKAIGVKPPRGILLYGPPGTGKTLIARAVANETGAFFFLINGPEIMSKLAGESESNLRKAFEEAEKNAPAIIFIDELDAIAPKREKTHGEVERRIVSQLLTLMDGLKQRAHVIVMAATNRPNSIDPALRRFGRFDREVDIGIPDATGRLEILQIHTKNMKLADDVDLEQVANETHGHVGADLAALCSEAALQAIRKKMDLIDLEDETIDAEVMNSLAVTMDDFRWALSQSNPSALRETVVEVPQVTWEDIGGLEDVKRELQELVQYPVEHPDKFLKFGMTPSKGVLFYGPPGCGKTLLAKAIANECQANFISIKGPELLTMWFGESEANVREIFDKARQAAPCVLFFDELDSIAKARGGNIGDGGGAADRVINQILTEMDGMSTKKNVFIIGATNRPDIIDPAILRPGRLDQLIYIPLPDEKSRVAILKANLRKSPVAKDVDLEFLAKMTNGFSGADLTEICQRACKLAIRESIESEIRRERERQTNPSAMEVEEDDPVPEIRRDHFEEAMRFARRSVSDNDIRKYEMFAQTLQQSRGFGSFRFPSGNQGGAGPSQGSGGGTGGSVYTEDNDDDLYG

Structure (SMILES)	IC50 [µM]
Nc1c(/N=N/c2ccc(-c3cc(C(F)(F)F)cc(C(F)(F)F)c3)nc2)cc(S(=O)(=O)O)c2ccccc12	2.75
CC(=O)c1ccc(-c2ccc(/N=N/c3cc(S(=O)(=O)O)c4ccccc4c3N)cn2)cc1	0.136
